These results are taken from ChEMBL document CHEMBL1158453 (J Med Chem, 2009).

Broadly, the AUC is concentration integrated over time. The term Tmax denotes the time at which the peak concentration occurs. As usually defined, the Cmax is the peak of the concentration-time curve. A word on the AUC(0-inf): it is the area under the concentration-time curve extrapolated to infinity. Low values mean less exposure, high ones more exposure. A word on the half-life: it is the time needed for the level to fall by half in the phase considered. One may read the logD as lipophilicity at a set pH, counting ionised and neutral species.

The structures appear in SMILES notation.

The subject of data set [1] is Rattus norvegicus. Nature of the data set: AUC (0 to infinity) in Wistar rat plasma at 35 mg/kg, iv. The class given is ADME, organism-based. More on the design: time infinity, dose 35 mg/kg, route intravenous. Particulars: in vivo.
Data set [2] in a line: Tmax in Wistar rat plasma at 35 mg/kg, iv. It is filed as ADME, organism-based. On the set-up: dose 35 mg/kg, route intravenous.
Data set [3] in a line: Cmax in Wistar rat plasma at 35 mg/kg, iv. On the set-up: dose 35 mg/kg, route intravenous. It is filed as ADME, organism-based.
Data set [4] can be described thus: in vivo. Particulars: Wistar, rat, plasma, po, 140 mg/kg.
Description: AUC (0 to infinity) in Wistar rat plasma at 140 mg/kg, po
Data set [5] can be described thus: in vivo. Particulars: Wistar, rat, plasma, po, 140 mg/kg. This is another data set of the same source.
Description: Tmax in Wistar rat plasma at 140 mg/kg, po
Data set [6] can be described thus: in vivo. Particulars: Wistar, rat, plasma, po, 140 mg/kg. This is another data set of the same source.
Description: Cmax in Wistar rat plasma at 140 mg/kg, po
In data set [7] the test system is Rattus norvegicus. The data set is described as follows: Cmax in Wistar rat plasma assessed as metformin level at 67 mg/kg, iv. On the set-up: dose 67 mg/kg, route intravenous. It is filed as ADME, organism-based. Particulars: in vivo.
The nature of data set [8]: Metabolic stability in human serum assessed as compound degradation to metformin after 24 hrs by HPLC. The class given is ADME, cell-free. Particulars: read-out: Activity.
A short description of data set [9]: Metabolic stability in rat serum assessed as compound degradation to metformin after 24 hrs by HPLC. The class given is ADME, cell-free. Particulars: read-out: Activity.
Data set [10] deals with Rattus norvegicus. The data set is described as follows: AUC (0 to infinity) in Wistar rat plasma assessed as metformin level at 100 mg/kg, po. It is filed as ADME, organism-based. More on the design: time infinity, dose 100 mg/kg, route oral. The note with it: in vivo.
The nature of data set [11]: Metabolic stability in 20% rat liver homogenate assessed as compound degradation to metformin after 24 hrs by HPLC. It is filed as ADME, tissue-based. Particulars: 20% liver homogenate, read-out: Activity.
Data set [12] can be described thus: Chemical stability in 50 mM acetate buffer at pH 4.0 at 37 degC assessed as compound degradation to metformin after 4 weeks by HPLC. It is filed as physicochemical. Particulars: read-out: Activity.
Data set [13] concerns Rattus norvegicus. Nature of the data set: Tmax in Wistar rat plasma assessed as metformin level at 100 mg/kg, po. On the set-up: dose 100 mg/kg, route oral. It is filed as ADME, organism-based. Particulars: in vivo.
Data set [14] deals with Rattus norvegicus. The data set is described as follows: Cmax in Wistar rat plasma assessed as metformin level at 100 mg/kg, po. More on the design: dose 100 mg/kg, route oral. It is filed as ADME, organism-based. The note with it: in vivo.
Data set [15] is described as follows: Chemical stability in 50 mM phosphate buffer at pH 7.4 at 37 degC assessed as compound degradation to metformin after 4 weeks by HPLC. The note with it: read-out: Activity. The class given is physicochemical.
The test system of data set [16] is Rattus norvegicus. Nature of the data set: Oral bioavailability in Wistar rat assessed as metformin level at 100 mg/kg. It is filed as ADME, organism-based. Particulars: in vivo.
Data set [17] is described as follows: Chemical stability in 50 mM HCl buffer at pH 1.0 at 37 degC assessed as half life by HPLC. The class given is physicochemical.
A short description of data set [18]: Chemical stability in 50 mM borate buffer at pH 9.0 at 37 degC assessed as compound degradation to metformin after 4 weeks by HPLC. The class given is physicochemical. Particulars: read-out: Activity.
Data set [19] is described as follows: Octanol-water distribution coefficient, log D at pH 4 by HPLC. It is filed as physicochemical.
The nature of data set [20]: Octanol-water distribution coefficient, log D at pH 7.4 by HPLC. The class given is physicochemical.
Data set [21] in a line: Chemical stability in 15 mM hydrogen peroxide solution at pH 7.4 at 37 degC assessed as half life by HPLC. The class given is physicochemical.
The test system of data set [22] is Rattus norvegicus. The data set is described as follows: AUC (0 to infinity) in Wistar rat plasma assessed as metformin level at 67 mg/kg, iv. It is filed as ADME, organism-based. On the set-up: time infinity, dose 67 mg/kg, route intravenous. The note with it: in vivo.
Data set [23] concerns Rattus norvegicus. Nature of the data set: Tmax in Wistar rat plasma assessed as metformin level at 67 mg/kg, iv. The class given is ADME, organism-based. More on the design: dose 67 mg/kg, route intravenous. The note with it: in vivo.
Data set [24] is described as follows: Chemical stability in 50 mM acetate buffer at pH 4.0 at 37 degC assessed as half life by HPLC. The class given is physicochemical.
The nature of data set [25]: Chemical stability in 50 mM phosphate buffer at pH 7.4 at 37 degC assessed as half life by HPLC. The class given is physicochemical.
A short description of data set [26]: Metabolic stability in 20% rat liver homogenate assessed as half life by HPLC. The note with it: 20% liver homogenate. It is filed as ADME, tissue-based.
Data set [27] can be described thus: Chemical stability in 50 mM borate buffer at pH 9.0 at 37 degC assessed as half life by HPLC. It is filed as physicochemical.
For the next data set, the system named is Serum. Nature of the data set: Metabolic stability in human serum assessed as half life by HPLC. It is filed as ADME, cell-free.
A short description of data set [28]: Metabolic stability in rat serum assessed as half life by HPLC. The class given is ADME, cell-free.

As for `CN(C)C(=N)N=C(N)N` [METFORMIN], in the data set with Rattus norvegicus [1], the exposure (AUC) stood at 170 µg·min/mL. Besides, the time to peak (Tmax) in [2] was 1 min; in “in vivo [5]” it was 50 min. Moreover, the peak concentration (Cmax) in [3] came out at 20.9 µg/mL; in “in vivo [6]”, 1.7 µg/mL. This molecule gave an AUC(0-inf) in the data set “in vivo [4]” of 4.82 µg·h/mL.

With `CN(C)C(=N)/N=C(\N)NSC1CCCCC1`, the Cmax in the data set with Rattus norvegicus [7] is 3 µg/mL; in the data set on Rattus norvegicus [14] it was 1.3 µg/mL. Further, the metabolised at 24 h in data set [8], in data set [9] and in data set [11] was 10% in each case. For the same molecule, the exposure (AUC) in the data set on Rattus norvegicus [10] is 275 µg·min/mL; with Rattus norvegicus [22], 291 µg·min/mL. In addition, the degraded at 672 h amounted to 10% in data set [12], 10% in data set [15] and 40% in data set [18]. Also, the Tmax with Rattus norvegicus [13] was found to be 60 min; in the data set with Rattus norvegicus [23], 10 min. Moreover, the F in the data set with Rattus norvegicus [16] was 64.5%. Moreover, the values for the half-life in [17] and in data set [21] were 478 min and 35.8 min, respectively. Besides, the logD is -1.1 in data set [19] and 0.49 in data set [20].

As for `CN(C)C(=N)/N=C(\N)NSc1ccccc1`, the half-life in data set [24] is 78.6 h; in [25] it was 78.6 h; in [26], 0.25 min; in data set [17], 12.1 min; in [27] it was 18.1 min; in data set [21], 14.2 min. Also, the half-life in data set [28] came out at 36.8 min. The logD in data set [19] was -0.7; in data set [20], -0.76. Besides, the t1/2 with Serum was determined as 0.0623 min.
